In patent EP4700027A1, “CRYSTALLINE FORM OF NITROGEN-CONTAINING TETRACYCLIC COMPOUND AND PREPARATION METHOD THEREFOR” (Jiangsu Hengrui Pharmaceuticals Co., Ltd., priority 2023, dated 2024):
pIC50: −log10 of the molar value.

How the values were obtained:
H358 cells = assay: H358 cell proliferation assay (CellTiter-Glo); format: cell-based; conditions: Homo sapiens, NCI-H358; inhibitory activity against H358 cell proliferation, 120 h incubation
Method: The inhibitory activity of the compound of the present disclosure against H358 cell proliferation was measured. Below is a brief description of the experimental method: H358 cells (ATCC, CRL-5807) were cultured in RPMI1640 medium (Hyclone, SH30809.01) containing 10% fetal bovine serum (Corning, 35-076-CV) (i.e., complete medium). On the first day of the experiment, H358 cells were seeded into a 96-well plate at a density of 1200 cells/well using complete medium, with 100 µL of cell suspension per well, and the plate was incubated overnight in a 5% CO2 cell incubator at 37 °C. On the second day, the test compound, prepared in complete medium and serially diluted, was added at 10 µL/well. The final concentrations of the compound were 9 concentration points obtained by a 5-fold serial dilution from 10 µM. A blank control containing 0.5% DMSO was set up. The plate was incubated for 120 h in a 5% CO2 cell incubator at 37 °C. On the seventh day, the 96-well cell plate was removed from the incubator, and Cell Titer-Glo® Luminescent Cell Viability Assay (Promega, G7573) was added at 50 µL/well. After the plate was left to stand at room temperature for 10 min, the luminescence signal values were measured using a multifunctional microplate reader (PerkinElmer, EnVision® 2105), and the IC50 value for the inhibitory activity of the compound was calculated using Graphpad Prism software. Table 1. […]

MIA PaCa-2 cells = assay: MIA PaCa-2 cell proliferation assay (CellTiter-Glo); format: cell-based; conditions: Homo sapiens; inhibitory activity against MIA PaCa-2 cell proliferation, 72 h incubation
Method: The inhibitory activity of the compound of the present disclosure against MIA PaCa-2 cell proliferation was measured. Below is a brief description of the experimental method: MIA PaCa-2 cells (ATCC, CRL-1420) were cultured in DMEM/HIGH GLUCOSE medium (GE, SH30243.01) containing 10% fetal bovine serum (Corning, 35-076-CV) and 2.5% horse serum (Beyotime Biological Tech., C0262) (i.e., complete medium). On the first day of the experiment, MIA PaCa-2 cells were seeded into a 96-well plate at a density of 500 cells/well using complete medium, with 90 µL of cell suspension per well, and the plate was incubated overnight in a 5% CO2 cell incubator at 37 °C. On the second day, the test compound, prepared in complete medium and serially diluted, was added at 10 µL/well. The final concentrations of the compound were 9 concentration points obtained by a 5-fold serial dilution from 10 µM. A blank control containing 0.5% DMSO was set up. The plate was incubated for 72 h in a 5% CO2 cell incubator at 37 °C. […] After the plate was left to stand at room temperature for 10 min, the luminescence signal values were measured using a multifunctional microplate reader (PerkinElmer, EnVision2015). The IC50 value for the inhibitory activity of the compound was calculated using Graphpad Prism software. […]

[1] = Dynamic vapor sorption (DVS) hygroscopicity testing; format: physicochemical
From the text: According to the description of hygroscopicity characteristics and the definitions of hygroscopic weight gains in "General Rule 9103, Guidelines for Hygroscopicity Trials for Pharmaceuticals" in the Chinese Pharmacopoeia, Volume IV, 2015 Edition, • deliquescent: sufficient water is absorbed to form a liquid; • extremely hygroscopic: the hygroscopic weight gain is not less than 15%; • hygroscopic: the hygroscopic weight gain is less than 15% but not less than 2%; • slightly hygroscopic: the hygroscopic weight gain is less than 2% but not less than 0.2%; nonhygroscopic or practically nonhygroscopic: the hygroscopic weight gain is less than 0.2%.
DVS refers to dynamic vapor sorption: The analysis was performed using SMS DVS Advantage; at 25 °C, the humidity was changed as follows: 50%-95%-0%-95%-50%, in steps of 10% (5% for the last step) (specific humidity ranges are shown in corresponding patterns, and those listed here were used in most cases); the criterion was dm/dt being not greater than 0.002%.

[2] = Influencing factor stability study on crystal forms (light, high temperature, high humidity, 30 days); format: physicochemical
[3] = Light exposure (4500 Lux), 7 days
[4] = Light exposure (4500 Lux), 14 days
[5] = Light exposure (4500 Lux), 30 days

Q: With `C=CC(=O)N1CCN2C(=O)c3cc(F)c(-c4ccc(F)c5sc(N)c(C#N)c45)c4c(Cl)nn(c34)CC[C@H]2C1` (atropisomer, axis not shown) [Compound 1, (S)-4-((S)-10-acryloyl-4-chloro-2-fluoro-14-oxo-8,8a,9,10,11,12-hexahydro-7H,14H-pyrazino[1',2':5,6][1,5]diazocino[3,2,1-hi]indazol-3-yl)-2-amino-7-fluorobenzo[b]thiophene-3-carbonitrile] as the molecule, how does the pIC50 (H358 cells) read?
A: Its pIC50 is 9.13.

Q: And the pIC50 (MIA PaCa-2 cells)?
A: The pIC50 was 9.55.

Q: With `C=CC(=O)N1CCN2C(=O)c3cc(F)c(-c4ccc(F)c5sc(N)c(C#N)c45)c4c(Cl)nn(c34)CC[C@H]2C1` [crystal form G] as the molecule, how does the hygroscopic weight gain ([1]; accelerated experimental conditions (70% RH)) read?
A: The hygroscopic weight gain was “about 1.21%”.

Q: What about the “crystal form re-identified after DVS testing” value ([1]; after DVS testing) of the same molecule?
A: The value was “did not change”.

Q: And the hygroscopic weight gain ([1]; extreme conditions (90% RH))?
A: The hygroscopic weight gain was “about 1.60%”.

Q: What about the “desorption process of the sample versus its adsorption process” value ([1]; humidity changing from 0% to 95% RH) of the same molecule?
A: The value was “substantially overlapped”.

Q: What about the hygroscopic weight gain ([1]; normal storage conditions (25 °C and 60% RH)) of the same molecule?
A: Its hygroscopic weight gain is “about 1.04%”.

Q: And the Color and state ([2]; 40 °C, 7 days)?
A: The Color and state was “Off-white solid”.

Q: And the Crystal form ([2]; 40 °C, 7 days)?
A: The Crystal form was “Did not change”.

Q: And the “Purity (%)” value ([2]; 40 °C, 7 days)?
A: Its value is 98.2%.

Q: What about the Color and state ([2]; 40 °C, 14 days) of the same molecule?
A: The Color and state was “Off-white solid”.

Q: What about the Crystal form ([2]; 40 °C, 14 days) of the same molecule?
A: Its Crystal form is “Did not change”.

Q: What about the “Purity (%)” value ([2]; 40 °C, 14 days) of the same molecule?
A: The value was 97.8%.

Q: What about the Color and state ([2]; 40 °C, 30 days) of the same molecule?
A: The Color and state was “Off-white solid”.

Q: And the Crystal form ([2]; 40 °C, 30 days)?
A: The Crystal form was “Did not change”.

Q: What about the “Purity (%)” value ([2]; 40 °C, 30 days) of the same molecule?
A: Its value is 97.7%.

Q: And the Color and state ([2]; 60 °C, 7 days)?
A: Its Color and state is “Off-white solid”.

Q: What about the Crystal form ([2]; 60 °C, 7 days) of the same molecule?
A: The Crystal form was “Did not change”.

Q: And the “Purity (%)” value ([2]; 60 °C, 7 days)?
A: Its value is 98.3%.

Q: And the Color and state ([2]; 60 °C, 14 days)?
A: Its Color and state is “Off-white solid”.

Q: What about the Crystal form ([2]; 60 °C, 14 days) of the same molecule?
A: The Crystal form was “Did not change”.

Q: And the “Purity (%)” value ([2]; 60 °C, 14 days)?
A: Its value is 98.1%.

Q: What about the Color and state ([2]; 60 °C, 30 days) of the same molecule?
A: Its Color and state is “Off-white solid”.

Q: What about the Crystal form ([2]; 60 °C, 30 days) of the same molecule?
A: Its Crystal form is “Did not change”.

Q: What about the “Purity (%)” value ([2]; 60 °C, 30 days) of the same molecule?
A: The value was 98.1%.

Q: What about the Color and state ([2]; 75% RH, 7 days) of the same molecule?
A: Its Color and state is “Off-white solid”.

Q: What about the Crystal form ([2]; 75% RH, 7 days) of the same molecule?
A: The Crystal form was “Did not change”.

Q: And the “Purity (%)” value ([2]; 75% RH, 7 days)?
A: The value was 98.5%.

Q: What about the Color and state ([2]; 75% RH, 14 days) of the same molecule?
A: Its Color and state is “Off-white solid”.

Q: And the Crystal form ([2]; 75% RH, 14 days)?
A: The Crystal form was “Did not change”.

Q: And the “Purity (%)” value ([2]; 75% RH, 14 days)?
A: Its value is 98.5%.

Q: And the Color and state ([2]; 75% RH, 30 days)?
A: The Color and state was “Off-white solid”.

Q: And the Crystal form ([2]; 75% RH, 30 days)?
A: Its Crystal form is “Did not change”.

Q: And the “Purity (%)” value ([2]; 75% RH, 30 days)?
A: The value was 98.5%.

Q: And the Color and state ([2]; 92.5% RH, 7 days)?
A: The Color and state was “Off-white solid”.

Q: What about the Crystal form ([2]; 92.5% RH, 7 days) of the same molecule?
A: Its Crystal form is “Did not change”.

Q: And the “Purity (%)” value ([2]; 92.5% RH, 7 days)?
A: Its value is 98.5%.

Q: And the Color and state ([2]; 92.5% RH, 14 days)?
A: The Color and state was “Off-white solid”.

Q: What about the Crystal form ([2]; 92.5% RH, 14 days) of the same molecule?
A: The Crystal form was “Did not change”.

Q: What about the “Purity (%)” value ([2]; 92.5% RH, 14 days) of the same molecule?
A: The value was 98.5%.

Q: And the Color and state ([2]; 92.5% RH, 30 days)?
A: The Color and state was “Off-white solid”.

Q: And the Crystal form ([2]; 92.5% RH, 30 days)?
A: The Crystal form was “Did not change”.

Q: And the “Purity (%)” value ([2]; 92.5% RH, 30 days)?
A: Its value is 98.5%.

Q: And the Color and state ([2]; Initial, 0 days)?
A: Its Color and state is “Off-white solid”.

Q: What about the Crystal form ([2]; Initial, 0 days) of the same molecule?
A: The Crystal form was “Crystal form G”.

Q: And the “Purity (%)” value ([2]; Initial, 0 days)?
A: Its value is 98.5%.

Q: What about the Color and state [2, 3] of the same molecule?
A: The Color and state was “Off-white solid”.

Q: What about the Crystal form [2, 3] of the same molecule?
A: Its Crystal form is “Did not change”.

Q: And the “Purity (%)” value [2, 3]?
A: The value was 98.5%.

Q: What about the Color and state [2, 4] of the same molecule?
A: Its Color and state is “Off-white solid”.

Q: What about the Crystal form [2, 4] of the same molecule?
A: Its Crystal form is “Did not change”.

Q: What about the “Purity (%)” value [2, 4] of the same molecule?
A: Its value is 98.4%.

Q: And the Color and state [2, 5]?
A: Its Color and state is “Off-white solid”.

Q: And the Crystal form [2, 5]?
A: The Crystal form was “Did not change”.

Q: And the “Purity (%)” value [2, 5]?
A: The value was 98.3%.
